In ChEMBL document CHEMBL1158149, “(+)-Nortrachelogenin, a new pharmacologically active lignan from Wikstroemia indica” (1979):
Active and inactive are the calls of the source. The calls are words filed in the database; no cut-off is given here.

Experiments:
Oryctolagus cuniculus = species: Oryctolagus cuniculus; experiment: Effect on central nervous system in rabbit assessed as depression; assay type: functional, organism-based
Mus musculus [1] = species: Mus musculus; experiment: Effect on central nervous system in mouse assessed as prolongation of anesthesia; assay type: functional
Mus musculus [2] = species: Mus musculus; experiment: Effect on central nervous system in mouse assessed as muscle relaxant activity; assay type: functional, organism-based
Mus musculus [3] = species: Mus musculus; experiment: Effect on central nervous system in mouse assessed as tranquilizing activity; assay type: functional, organism-based

For `COc1cc(C[C@@H]2COC(=O)[C@@]2(O)Cc2ccc(O)c(OC)c2)ccc1O` [WIKSTROMOL], the Activity (Oryctolagus cuniculus) was “Active”, the LD50 (Mus musculus [1]) was 65 mg/kg and the Activity (Mus musculus [2]) was “inactive”. For the same molecule, the Activity (Mus musculus [3]) was “inactive”.
